In this assay the target is T1, AT1 receptors (Homo sapiens, UniProt P30556).
T1 construct: host or cells: HEK293
T1 sequence (P30556 1-359): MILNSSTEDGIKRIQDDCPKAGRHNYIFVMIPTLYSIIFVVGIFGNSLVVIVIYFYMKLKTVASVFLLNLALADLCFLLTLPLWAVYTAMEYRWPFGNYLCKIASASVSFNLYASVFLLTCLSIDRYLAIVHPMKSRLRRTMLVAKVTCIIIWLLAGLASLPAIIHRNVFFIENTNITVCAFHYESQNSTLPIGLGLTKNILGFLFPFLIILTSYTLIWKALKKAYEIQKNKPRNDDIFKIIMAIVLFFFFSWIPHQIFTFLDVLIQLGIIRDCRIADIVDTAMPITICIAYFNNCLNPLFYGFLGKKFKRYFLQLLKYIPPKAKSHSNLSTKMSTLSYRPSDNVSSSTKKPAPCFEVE
Description: Effect on calcium current in cells stably expressing AT1 receptors (FLIPR, antagonist mode). Particulars: HEK293-AT1 cells, Fluo-8 AM, FLIPR Tetra; read-out: IC50 values of compounds on calcium current in cells stably expressing AT1 receptors. The class given is cell-based. The text has this: Test Example 1. Determination of the Effect of the Compounds of the Present Invention on Calcium Current in Cells Stably Expressing AT1 Receptors
Antagonistic effect of test compounds on HEK293-AT1 cell activity
• DMEM, high glucose (Gibco: 12100); • Fetal bovine serum (Biosera: FB-1058/500); • P/S (Biosera: XC-A4122); • 5× Matrigel (Corning: 354230); • HBSS (Sigma: H1387); • HEPES (Invitrogen: 15630080); • Fluo-8 AM (AAT Bioquest: 21080); • Probenecid (Sigma: P8761); • Pluronic F-127 (Sigma: P2443-250G); • Angiotensin III TFA (MCE: HY-113035A); • Irbesartan (MCE: HY—B0202); • 1000× Fluo-8 AM (2 mM): Fluo-8 AM was dissolved in DMSO, the mixture was shaken for 1-2 min, sub-packaged and stored at −20° C.; • Complete culture medium: DMEM+10% FBS+1×P/S; • Cell seeding medium: DMEM+10% FBS+1×PS; • Experimental buffer 1: 1×HBSS+20 mM HEPES+1 mM Probenecid+0.025% Pluronic F-127; • Experimental buffer 2: 1×HBSS+20 mM HEPES+0.075% Pluronic F-127; • 1× Matrigel: 5× Matrigel was diluted with DMEM; • Cell line: HDB HEK293-AT1.
• 1) HEK293-AT1 cell line was cultured in complete culture medium at 37° C., 5% CO2 to 70%-90% confluence. • 2) the 384-well cell plate was coated with 1× Matrigel with 5 μL/well at room temperature for 10 to 30 min. • 3) the cells were digested and resuspended in cell seeding medium, inoculation was performed at 8,000 cells/well/20 μL in a 384-well cell culture plate, and the cells were cultured at 37° C., 5% CO2 for 24 h. • 4) the cell culture plate was taken out of the CO2 incubator and equilibrated at room temperature for 10 min. • 5) 1000× Fluo-8 AM was taken and diluted to 1× Fluo-8 AM with experimental buffer 1 that has been equilibrated to room temperature, with a concentration of 2 μM. • 6) the culture medium was removed from the cell culture plate, 20 μL of 1× Fluo-8 AM was added to each well, the mixture was centrifuged at 300 rpm for 60 seconds at room temperature, and incubated at room temperature in the dark for 1 h. • 7) positive control compound and test compound working solution (3×) were formulated: • (1) instrument Bravo was used to dilute the compound to 11 concentration points on the 384-well Echo compound plate (LABCYTE: LP-0200); • (2) instrument ECHO was used to transfer 90 nL of compound per well (compound storage concentration, such as the highest concentration point 10 mM) to the 384-well compound plate (PE: 6008590); • (3) Multidrop Combi was used to add 30 μL of experimental buffer 2 to the 384-well compound plate (PE: 6008590), the positive control compound and test compound were diluted to 30 μM (3×), and placed at room temperature until use. • 8) FLIPR Tetra was used to add 10 μL of diluted 3× compound into the experimental well of the corresponding 384-well cell plate, the compound and cells were incubated for 10 min at room temperature, then 10 μL of diluted 4× agonist was added, and the data was read and collected at the same time.
FLIPR Tetra was used to read and collect the fluorescence signal value (RFU). The maximum RFU value was used to calculate the percent activation data based on the readings of the Low control (DMSO control) and High control (100 nM positive compound) experimental groups {% activation rate=(RFUsample−RFUlow control)/(RFUhigh control−RFUlow control)×100}. The concentration of the test compound was 11 concentrations after diluting the reaction system 3 times, ranging from 10 uM to 0.17 nM.

Molecules are shown by their SMILES.

Our source for the IC50 values is patent US20240368123A1, “AROMATIC RING-CONTAINING BIOLOGICAL ANTAGONIST, AND PREPARATION METHOD THEREFOR AND USE THEREOF” (SHANGHAI HANSOH BIOMEDICAL CO., LTD., priority 2021, published 2024).

As to `CCCCC1=NC2(CCCC2)C(=O)N1Cc1ccc(-c2ccccc2S(=O)(=O)Nc2noc(C)c2Br)c(COCC)c1` [Example 46, 2-[4-[(2-butyl-4-oxo-1,3-diazaspiro[4.4]non-1-en-3-yl)methyl]-2-(ethoxymethyl)phenyl]-N-(4-bromo-5-methyl-isoxazol-3-yl)benzsulfamide], the half-inhibitory concentration (IC50) turned out to be 3.9 nM.

`[2H]C([2H])(OCC)c1cc(CN2C(=O)C3(CCCC3)N=C2CCCC)ccc1-c1ccccc1S(=O)(=O)Nc1noc(C)c1Cl` [Example 49, 4′-((2-butyl-4-oxo-1,3-diazospiro[4.4]non-1-en-3-yl)methyl)-N-(4-chloro-5-methylisoxazol-3-yl)-2′-(ethoxydeuteriummethyl)-[1,1′-biphenyl]-2-sulfonamide]: the IC50 came out at 7.2 nM.

In the case of `CCCCC1=NC2(CC3CC3C2)C(=O)N1Cc1ccc(-c2ccccc2S(=O)(=O)Nc2noc(C)c2Cl)c(COCC)c1` (stereo not drawn) [Example 65, 4′-((2′-butyl-5′-oxaspiro[bicyclo[3.1.0]hexane-3,4′-imidazole]-1′(5′H)-yl)methyl)-N-(4-chloro-5-methylisoxazol-3-yl)-2′-(ethoxymethyl)-[1,1′-biphenyl]-2-sulfonamide], the IC50 was found to be 4.4 nM.

Turning to `CCCCC1=NC2(CCCCC2)C(=O)N1Cc1ccc(-c2ccccc2S(=O)(=O)Nc2noc(C)c2Cl)c(COCC)c1` [Example 68, 4′-((2-2-4-4-oxo-1,3-diazaspiro[4.5]dec-1-en-3-yl)methyl)-N-(4-chloro-5-methylisoxazol-3-yl)-2′-(ethoxymethyl)-[1,1′-biphenyl]-2-sulfonamide], the IC50 was 8.8 nM.

Turning to `CCCCC1=NC2(CCCC2)C(=O)N1Cc1ccc(-c2ccccc2S(=O)(=O)Nc2noc(C)c2Cl)c(COCC(F)(F)F)c1` [Example 86], the IC50 came out at 2.2 nM.

Regarding `CCCCC1=NC2(CC3CC3C2)C(=O)N1Cc1ccc(-c2ccccc2S(=O)(=O)Nc2noc(C)c2C)c(COCC)c1` (stereo not drawn) [Example 87, 4′-((2′-butyl-5′-oxaspiro[bicyclo[3.1.0]hexane-3,4′-imidazole]-1′(5′H)-yl)methyl)-N-(4,5-dimethylisoxazol-3-yl)-2′-(ethoxymethyl)-[1,1′-biphenyl]-2-sulfonamide], the half-maximal inhibitory concentration (IC50) came out at 9.6 nM.
